Results from patent US10202361B2, “Pyridazinones as herbicides” (E I DU PONT DE NEMOURS AND COMPANY, priority 2014, dated 2019).
Like-named read-outs stand apart in the source and are kept apart here.

What was measured:
Type in all cases: in vivo
[1] = tested on: wheat (Triticum aestivum); assay: Test A pre-/postemergence greenhouse herbicide test; details: Triticum aestivum, 240 h, 0 to 100 scale (0 no effect, 100 complete control), approx. 10 d, read-out: Plant response rating, Wheat; for plant injury at 125 g/ha: 125 g ai/ha; for plant injury at 500 g/ha: 500 g ai/ha
How it was run: (§1)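 Seeds sown in loam–sand blend received a directed preemergence soil spray; postemergence spray was applied at the same time to plants 2–10 cm tall at one- to two-leaf stage. Compounds were in non-phytotoxic solvent with surfactant. Visual injury versus untreated controls after ~10 d in greenhouse, 0–100 scale (100 = complete control).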

[2] = tested on: crabgrass, Large (large crabgrass, Digitaria sanguinalis); assay: as above; details: Digitaria sanguinalis, 240 h, 0 to 100 scale (0 no effect, 100 complete control), approx. 10 d, read-out: Plant response rating, Crabgrass, Large; for pest or weed control at 125 g/ha: 125 g ai/ha; for pest or weed control at 500 g/ha: 500 g ai/ha
How it was run: as §1

[3] = tested on: pigweed (Amaranthus retroflexus); assay: as above; details: Amaranthus retroflexus, 240 h, 0 to 100 scale (0 no effect, 100 complete control), approx. 10 d, read-out: Plant response rating, Pigweed; for pest or weed control at 125 g/ha: 125 g ai/ha; for pest or weed control at 500 g/ha: 500 g ai/ha
How it was run: as §1

[4] = tested on: johnsongrass (Sorghum halepense); assay: Test C pre-/postemergence greenhouse herbicide test; details: Sorghum halepense, Johnsongrass, read-out: Plant response rating; for pest or weed control at 31 g/ha: 31 g ai/ha; for pest or weed control at 62 g/ha: 62 g ai/ha; for pest or weed control at 125 g/ha: 125 g ai/ha; for pest or weed control at 250 g/ha: 250 g ai/ha
How it was run: (§2)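 Seeds in loam–sand blend sprayed preemergence, and 1- to 4-leaf plants (2–18 cm) sprayed postemergence, with compounds in non-phytotoxic solvent plus surfactant. Visual rating versus controls after 13–15 d in greenhouse, 0 (no effect) to 100 (complete control).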

[5] = tested on: wheat (winter wheat, Triticum aestivum); assay: as above; details: Triticum aestivum, Wheat, read-out: Plant response rating; for plant injury at 62 g/ha: 62 g ai/ha; for plant injury at 125 g/ha: 125 g ai/ha; for plant injury at 250 g/ha: 250 g ai/ha
How it was run: as §2

[6] = tested on: crabgrass, Large (large crabgrass, Digitaria sanguinalis); assay: as above; details: Digitaria sanguinalis, Crabgrass, Large, read-out: Plant response rating; for pest or weed control at 31 g/ha: 31 g ai/ha; for pest or weed control at 62 g/ha: 62 g ai/ha; for pest or weed control at 125 g/ha: 125 g ai/ha; for pest or weed control at 250 g/ha: 250 g ai/ha
How it was run: as §2

[7] = tested on: blackgrass (Alopecurus myosuroides); assay: as above; details: Alopecurus myosuroides, Blackgrass, read-out: Plant response rating; for pest or weed control at 62 g/ha: 62 g ai/ha; for pest or weed control at 125 g/ha: 125 g ai/ha; for pest or weed control at 250 g/ha: 250 g ai/ha
How it was run: as §2

[8] = tested on: soybean (Glycine max); assay: as above; details: Glycine max, Soybean, read-out: Plant response rating; for plant injury at 62 g/ha: 62 g ai/ha; for plant injury at 125 g/ha: 125 g ai/ha; for plant injury at 250 g/ha: 250 g ai/ha
How it was run: as §2

[9] = tested on: corn (Zea mays); assay: as above; details: Zea mays, Corn, read-out: Plant response rating; for plant injury at 31 g/ha: 31 g ai/ha; for plant injury at 62 g/ha: 62 g ai/ha; for plant injury at 125 g/ha: 125 g ai/ha; for plant injury at 250 g/ha: 250 g ai/ha
How it was run: as §2

[10] = post-emergence, Postemergence, 31 g ai/ha

With Cc1cc(=O)n(-c2ccc(F)cc2)nc1Oc1ccnc(C(F)(F)F)c1 [Compound 14, 2-(4-fluorophenyl)-5-methyl-6-[[2-(trifluoromethyl)-4-pyridinyl]oxy]-3 (2H)-pyridazinone] the plant injury at 125 g/ha ([1]; post-emergence, Postemergence) was 40%, the plant injury at 500 g/ha ([1]; post-emergence, Postemergence) was 70% and the plant injury at 125 g/ha ([1]; pre-emergence, Preemergence) was 10%. It also gave a plant injury at 500 g/ha ([1]; pre-emergence, Preemergence) of 60%, a pest or weed control at 125 g/ha ([2]; post-emergence, Postemergence) of 90% and a pest or weed control at 500 g/ha ([2]; post-emergence, Postemergence) of 90%. For the same molecule, the pest or weed control at 125 g/ha ([2]; pre-emergence, Preemergence) was 90%, the pest or weed control at 500 g/ha ([2]; pre-emergence, Preemergence) was 90% and the pest or weed control at 125 g/ha ([3]; post-emergence, Postemergence) was 100%. It also gave a pest or weed control at 500 g/ha ([3]; post-emergence, Postemergence) of 100%, a pest or weed control at 125 g/ha ([3]; pre-emergence, Preemergence) of 100% and a pest or weed control at 500 g/ha ([3]; pre-emergence, Preemergence) of 100%. It also gave a pest or weed control at 31 g/ha ([4]; post-emergence, Postemergence) of 10%, a pest or weed control at 62 g/ha ([4]; post-emergence, Postemergence) of 15% and a pest or weed control at 125 g/ha ([4]; post-emergence, Postemergence) of 25%. For the same molecule, the pest or weed control at 250 g/ha ([4]; post-emergence, Postemergence) was 30%, the pest or weed control at 31 g/ha ([4]; pre-emergence, Preemergence) was 5% and the pest or weed control at 62 g/ha ([4]; pre-emergence, Preemergence) was 35%. For the same molecule, the pest or weed control at 125 g/ha ([4]; pre-emergence, Preemergence) was 35%, the pest or weed control at 250 g/ha ([4]; pre-emergence, Preemergence) was 85% and the plant injury at 31 g/ha [5, 10] was 5%. It also gave a plant injury at 62 g/ha ([5]; post-emergence, Postemergence) of 5%, a plant injury at 125 g/ha ([5]; post-emergence, Postemergence) of 5% and a plant injury at 250 g/ha ([5]; post-emergence, Postemergence) of 5%. For the same molecule, the plant injury at 62 g/ha ([5]; pre-emergence, Preemergence) was 0%, the plant injury at 125 g/ha ([5]; pre-emergence, Preemergence) was 15% and the plant injury at 250 g/ha ([5]; pre-emergence, Preemergence) was 25%. The pest or weed control at 31 g/ha ([6]; post-emergence, Postemergence) was 10%, the pest or weed control at 62 g/ha ([6]; post-emergence, Postemergence) was 10% and the pest or weed control at 125 g/ha ([6]; post-emergence, Postemergence) was 15%. It also gave a pest or weed control at 250 g/ha ([6]; post-emergence, Postemergence) of 30%, a pest or weed control at 31 g/ha ([6]; pre-emergence, Preemergence) of 80% and a pest or weed control at 62 g/ha ([6]; pre-emergence, Preemergence) of 100%. The pest or weed control at 125 g/ha ([6]; pre-emergence, Preemergence) was 100%, the pest or weed control at 250 g/ha ([6]; pre-emergence, Preemergence) was 100% and the pest or weed control at 31 g/ha [7, 10] was 5%. It also gave a pest or weed control at 62 g/ha ([7]; post-emergence, Postemergence) of 5%, a pest or weed control at 125 g/ha ([7]; post-emergence, Postemergence) of 5% and a pest or weed control at 250 g/ha ([7]; post-emergence, Postemergence) of 45%. The pest or weed control at 62 g/ha ([7]; pre-emergence, Preemergence) was 10%, the pest or weed control at 125 g/ha ([7]; pre-emergence, Preemergence) was 15% and the pest or weed control at 250 g/ha ([7]; pre-emergence, Preemergence) was 15%. The plant injury at 31 g/ha [8, 10] was 90%, the plant injury at 62 g/ha ([8]; post-emergence, Postemergence) was 90% and the plant injury at 125 g/ha ([8]; post-emergence, Postemergence) was 95%. The plant injury at 250 g/ha ([8]; post-emergence, Postemergence) was 95%, the plant injury at 62 g/ha ([8]; pre-emergence, Preemergence) was 40% and the plant injury at 125 g/ha ([8]; pre-emergence, Preemergence) was 55%. It also gave a plant injury at 250 g/ha ([8]; pre-emergence, Preemergence) of 75%, a plant injury at 31 g/ha ([9]; post-emergence, Postemergence) of 20% and a plant injury at 62 g/ha ([9]; post-emergence, Postemergence) of 35%. For the same molecule, the plant injury at 125 g/ha ([9]; post-emergence, Postemergence) was 40%, the plant injury at 250 g/ha ([9]; post-emergence, Postemergence) was 40% and the plant injury at 31 g/ha ([9]; pre-emergence, Preemergence) was 0%. It also gave a plant injury at 62 g/ha ([9]; pre-emergence, Preemergence) of 35%, a plant injury at 125 g/ha ([9]; pre-emergence, Preemergence) of 50% and a plant injury at 250 g/ha ([9]; pre-emergence, Preemergence) of 75%.
